Results as given in patent US10072023B2, “Diarylethene compounds and uses thereof” (SWITCH MATERIALS, INC., priority 2011, dated 2018).

Assays:
[1] = Solubility in indicated solvent; format: physicochemical; conditions: % wt soluble in triglyme
From the text: A compound with greater solubility allows for a formulation or material with a greater concentration of coloured molecule to be incorporated into a composition. This may allow for increasing the contrast ratio for a compound with a lesser absorbance at PSS. Inclusion of a solubilizing group in a compound according to various embodiments of the invention may increase solubility. Examples of solubilizing groups may include alkoxy or siloxy groups.

[2] = Absorbance at photostationary state (PSS) under simulated sunlight or 365 nm light; format: physicochemical; design: λ max: unit not given here; conditions: for Absorbance at PSS, 365 nm: 365 nm light source; for Absorbance at PSS, 365 nm / Absorbance at PSS, full / Absorbance at PSS, +UV / λ max: 2.0×10^−5 M in triglyme; for sensitivity index: ratio of PSS under 365 nm light to PSS under full spectrum light (without UV blocking film); for Absorbance at PSS, full: simulated sunlight (QSUN solar simulator), no UV blocking film; for Absorbance at PSS, +UV: simulated sunlight with UV blocking film (cutoff 370 nm); for λ max: wavelength of maximum absorbance in the visible range, ring-closed isoform
Outline: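 Compounds at 2.0×10^−5 M in triglyme, photofaded with visible light, then irradiated with simulated sunlight (xenon arc) or 365 nm light until the UV/Vis spectrum stabilized. Also irradiated through a UV-blocking film (370 nm cutoff); sensitivity index is PSS under 365 nm divided by PSS under full spectrum.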

SMILES | Solubility [1] | Absorbance at PSS, 365 nm [2] | sensitivity index [2] | Absorbance at PSS, full [2] | Absorbance at PSS, +UV [2] | λ max [2]
c1ccc(-c2nc(-c3nc(-c4ccccc4)sc3-c3nc(-c4ccccc4)sc3-c3ccccc3)c(-c3ccccc3)s2)cc1 [S032, 2,2′,2″,5,5″-pentaphenyl-4,4′:5′,4″-terthiazole] | 1 % wt | 0.594 | 18.56 | 0.032 | 0.008 | 600
Cc1cc(-c2sc(C)c(C)c2C2=C(c3c(-c4cc(C)c(C)s4)sc(C)c3C)C(F)(F)C(F)(F)C2(F)F)sc1C [S039, 3,3′-(perfluorocyclopent-1-ene-1,2-diyl)bis(4,4′,5,5′-tetramethyl-2,2′-bithiophene)] | 2 % wt | 0.372 | 7.75 | 0.048 | 0.028 | 570
FC(F)(F)c1ccc(-c2cc(C3=C(c4cc(-c5ccc(C(F)(F)F)cc5)sc4-c4ccc(C(F)(F)F)cc4)C(F)(F)C(F)(F)C3(F)F)c(-c3ccc(C(F)(F)F)cc3)s2)cc1 [S044, 3,3′-(perfluorocyclopent-1-ene-1,2-diyl)bis(2,5-bis(4-(trifluoromethyl)phenyl)thiophene)] | 1 % wt | 0.222 | 3.58 | 0.062 | 0.027 | 605
CC(C)(C)c1ccc(-c2cc(C3=C(c4cc(-c5ccc(C(C)(C)C)cc5)sc4-c4cccs4)C(F)(F)C(F)(F)C3(F)F)c(-c3cccs3)s2)cc1 [S049, 3,3″-(perfluorocyclopent-1-ene-1,2-diyl)bis(5-(4-(tert-butyl)phenyl)-2,2′-bithiophene)] | 2 % wt | 0.217 | 2.49 | 0.087 | 0.044 | 625
CC(C)(C)c1ccc(-c2sc(-c3cccs3)cc2C2=C(c3cc(-c4cccs4)sc3-c3ccc(C(C)(C)C)cc3)C(F)(F)C(F)(F)C2(F)F)cc1 [S052, 4,4″-(perfluorocyclopent-1-ene-1,2-diyl)bis(5-(4-(tert-butyl)phenyl)-2,2′-bithiophene)] | 1 % wt | 0.318 | 1.54 | 0.206 | 0.116 | 630
COc1ccc(-c2cc(C3=C(c4cc(-c5ccc(OC)cc5)sc4-c4ccc(OC)cc4)C(F)(F)C(F)(F)C3(F)F)c(-c3ccc(OC)cc3)s2)cc1 [S054, 3,3′-(perfluorocyclopent-1-ene-1,2-diyl)bis(2,5-bis(4-methoxyphenyl)thiophene)] | 5-6 % wt | 0.268 | 2.53 | 0.106 | 0.056 | 630
CC(C)(C)c1ccc(-c2sc(-c3ccccc3)cc2C2=C(c3cc(-c4ccccc4)sc3-c3ccc(C(C)(C)C)cc3)C(F)(F)C(F)(F)C2(F)F)cc1 [S057, 3,3′-(perfluorocyclopent-1-ene-1,2-diyl)bis(2-(4-tert-butylphenyl)-5-phenylthiophene)] | 1.5 % wt | 0.204 | 2.58 | 0.079 | 0.033 | 610
CC(C)(C)c1ccc(-c2sc(-c3ccc(Cl)cc3)cc2C2=C(c3cc(-c4ccc(Cl)cc4)sc3-c3ccc(C(C)(C)C)cc3)C(F)(F)C(F)(F)C2(F)F)cc1 [S060] | 1 % wt | 0.22 | 2.06 | 0.107 | 0.038 | 615
CC(C)(C)c1ccc(-c2sc(-c3ccc(C4(C)OCCO4)cc3)cc2C2=C(c3cc(-c4ccc(C5(C)OCCO5)cc4)sc3-c3ccc(C(C)(C)C)cc3)C(F)(F)C(F)(F)C2(F)F)cc1 [S066, 2,2′-((4,4′-(perfluorocyclopent-1-ene-1,2-diyl)bis(5-(4-(tert-butyl)phenyl)thiophene-4,2-diyl))bis(4,1-phenylene))bis(2-methyl-1,3-dioxolane)] | 2.5 % wt | 0.226 | 2.28 | 0.099 | 0.049 | 615
COCCOCCOCCOC(C)(C)c1ccc(-c2cc(C3=C(c4cc(-c5ccc(C(C)(C)OCCOCCOCCOC)cc5)sc4-c4ccc(C(C)(C)C)cc4)C(F)(F)C(F)(F)C3(F)F)c(-c3ccc(C(C)(C)C)cc3)s2)cc1 [S068, 12,12′-((4,4′-(perfluorocyclopent-1-ene-1,2-diyl)bis(5-(4-(tert-butyl)phenyl)thiophene-4,2-diyl))bis(4,1-phenylene))bis(12-methyl-2,5,8,11-tetraoxatridecane)] | >20 % wt | 0.239 | 2.15 | 0.111 | 0.051 | 615
c1ccc(-c2nc(-c3cc(-c4cccs4)sc3-c3cccs3)c(-c3cc(-c4cccs4)sc3-c3cccs3)s2)cc1 [S075] | 1 % wt | 0.302 | 3.82 | 0.079 | 0.031 | 670
CCCCCCCCc1ccc(-c2oc3ccccc3c2C2=C(c3c(-c4ccc(CCCCCCCC)cc4)oc4ccccc34)C(F)(F)C(F)(F)C2(F)F)cc1 [S079, 1,2-bis(2-(4-n-octylphenyl)-1-benzofuran-3-yl)perfluorocyclopentene] | 8-11 % wt | 0.17 | 7.39 | 0.023 | 0.008 | 490
COc1cccc(-c2cc(C3=C(c4cc(-c5cccc(OC)c5)sc4-c4cccc(OC)c4)C(F)(F)C(F)(F)C3(F)F)c(-c3cccc(OC)c3)s2)c1 [S096, 3,3′-(perfluorocyclopent-1-ene-1,2-diyl)bis(2,5-bis(3-methoxyphenyl)thiophene)] | 15 % wt | 0.183 | 4.07 | 0.045 | 0.014 | 609
COCCOCCOCCOc1ccc(-c2sc(-c3ccc(C(C)(C)C)s3)cc2C2=C(c3cc(-c4ccc(C(C)(C)C)s4)sc3-c3ccc(OCCOCCOCCOC)cc3)C(F)(F)C(F)(F)C2(F)F)cc1 [S108] | >25 % wt | 0.374 | 1.28 | 0.292 | 0.215 | 645
CCOCCOCCOCCOc1ccc(-c2sc(-c3ccc(C(C)(C)C)s3)cc2C2=C(c3cc(-c4ccc(C(C)(C)C)s4)sc3-c3ccc(OCCOCCOCCOCC)cc3)C(F)(F)C(F)(F)C2(F)F)cc1 [S109, 4,4″-(perfluorocyclopent-1-ene-1,2-diyl)bis(5′-(tert-butyl)-5-(4-(2-(2-(2-ethoxyethoxy)ethoxy)ethoxy)phenyl)-2,2′-bithiophene)] | >25 % wt | 0.367 | 1.24 | 0.296 | 0.217 | 645
CCOCCOCCOCCOC(CC)(CC)c1ccc(-c2sc(-c3ccc(C(C)(C)C)s3)cc2C2=C(c3cc(-c4ccc(C(C)(C)C)s4)sc3-c3ccc(C(CC)(CC)OCCOCCOCCOCC)s3)C(F)(F)C(F)(F)C2(F)F)s1 [S128, 13,13′-(3′,3″″-(perfluorocyclopent-1-ene-1,2-diyl)bis(5″-(tert-butyl)-[2,2′: 5′,2″-terthiophene]-5,3′-diyl))bis(13-ethyl-3,6,9,12-tetraoxapentadecane)] | >25 % wt | 0.403 | 1.53 | 0.264 | 0.224 | 648
COCCC[Si](CCCOC)(CCCOC)c1ccc(-c2cc(C3=C(c4cc(-c5ccc([Si](CCCOC)(CCCOC)CCCOC)s5)sc4-c4ccc([Si](CCCOC)(CCCOC)CCCOC)s4)C(F)(F)C(F)(F)C3(F)F)c(-c3ccc([Si](CCCOC)(CCCOC)CCCOC)s3)s2)s1 [S138] | >20 % wt | 0.337 | 1.10 | 0.306 | 0.262 | 650
COCCC[Si](CCCOC)(CCCOC)c1ccc(-c2sc(-c3ccc(C(C)(C)C)s3)cc2C2=C(c3cc(-c4ccc(C(C)(C)C)s4)sc3-c3ccc([Si](CCCOC)(CCCOC)CCCOC)s3)C(F)(F)C(F)(F)C2(F)F)s1 [S158] | >20 % wt | 0.394 | 1.15 | 0.342 | 0.291 | 650
